For this series, the target named is UBE2M. The series is described as follows: reporter assay of Huesken 2005. The note with it: siRNA. For orientation: In a reporter assay the amount or activity of a reporter protein is the signal.

Oligonucleotides are written 5' to 3', each unit as a sugar letter and its base; * is a phosphorothioate linkage, no mark a phosphodiester; rarer units and linkages stand in square brackets, end groups in braces. Plain capitals give the bases only. d = 2'-deoxy (DNA); r = 2'-OH (RNA)

Data on 35 substances can be found in the OligoGym collection.
Further: test concentration or dose not given here.

Take “sense rGrGrCrGrGrCrGrCrArGrCrUrGrCrGrGrArUrCdTdT / antisense rGrArUrCrCrGrCrArGrCrUrGrCrGrCrCrGrCrCdGdA”: the normalised inhibition (eCFP-eYFP dual reporter) worked out at 71.7%.

With “sense rCrArGrCrUrUrCrUrCrArGrArUrCrCrArGrArCdTdT / antisense rGrUrCrUrGrGrArUrCrUrGrArGrArArGrCrUrGdAdT”, the normalised inhibition (eCFP-eYFP dual reporter) came out at 79.3%.

Substance “sense rGrGrGrCrCrArGrGrGrUrUrArCrCrCrGrCrArUdTdT / antisense rArUrGrCrGrGrGrUrArArCrCrCrUrGrGrCrCrCdAdC” gave a normalised inhibition (eCFP-eYFP dual reporter) of 79.3%. With “sense rCrArArUrGrGrUrCrUrArUrCrArCrCrCrCrArAdTdT / antisense rUrUrGrGrGrGrUrGrArUrArGrArCrCrArUrUrGdTdC” the figure was 86.1%. Substance “sense rCrUrArCrArArGrArGrUrGrGrGrArArGrUrUrUdTdT / antisense rArArArCrUrUrCrCrCrArCrUrCrUrUrGrUrArGdAdA” gave a normalised inhibition (eCFP-eYFP dual reporter) of 87.3%. With “sense rGrUrCrCrUrGrArUrGrArGrGrGrCrUrUrCrUrAdTdT / antisense rUrArGrArArGrCrCrCrUrCrArUrCrArGrGrArCdAdG”, the normalised inhibition (eCFP-eYFP dual reporter) was determined as 80.3%. Substance “sense rCrArArCrCrCrCrGrArGrGrArCrCrCrArCrUrGdTdT / antisense rCrArGrUrGrGrGrUrCrCrUrCrGrGrGrGrUrUrGdGdG” gave a normalised inhibition (eCFP-eYFP dual reporter) of 62.8%. The result for “sense rArGrGrCrGrUrCrGrGrCrGrGrCrGrCrArGrCrUdTdT / antisense rArGrCrUrGrCrGrCrCrGrCrCrGrArCrGrCrCrUdTdC” reads 51.7%; that for “sense rArArCrUrCrCrArUrArArUrUrUrArUrGrGrCrCdTdT / antisense rGrGrCrCrArUrArArArUrUrArUrGrGrArGrUrUdTdA”, 49.7%. As for “sense rGrArGrUrCrGrGrCrGrGrGrCrGrGrCrArCrCrAdTdT / antisense rUrGrGrUrGrCrCrGrCrCrCrGrCrCrGrArCrUrCdCdT”, the normalised inhibition (eCFP-eYFP dual reporter) is 53%. As for “sense rCrUrUrGrGrArGrCrCrCrArArCrCrCrCrGrArGdTdT / antisense rCrUrCrGrGrGrGrUrUrGrGrGrCrUrCrCrArArGdAdA”, the normalised inhibition (eCFP-eYFP dual reporter) amounted to 64.5%.

For the substance “sense rArArGrArGrUrGrGrGrArArGrUrUrUrGrUrGrUdTdT / antisense rArCrArCrArArArCrUrUrCrCrCrArCrUrCrUrUdGdT”, the normalised inhibition (eCFP-eYFP dual reporter) came out at 85.1%.

“sense rCrCrGrCrArGrArGrGrUrCrCrUrGrCrArGrArAdTdT / antisense rUrUrCrUrGrCrArGrGrArCrCrUrCrUrGrCrGrGdCdC” registered a normalised inhibition (eCFP-eYFP dual reporter) of 67.1%. The result for “sense rGrCrArGrArGrGrUrCrCrUrGrCrArGrArArCrAdTdT / antisense rUrGrUrUrCrUrGrCrArGrGrArCrCrUrCrUrGrCdGdG” reads 69.9%; that for “sense rArCrGrArGrCrUrGrArArCrCrUrGrCrCrCrArAdTdT / antisense rUrUrGrGrGrCrArGrGrUrUrCrArGrCrUrCrGrUdTdT”, 66%. Take “sense rUrGrArArCrArArGrGrArGrGrCrCrGrCrArGrAdTdT / antisense rUrCrUrGrCrGrGrCrCrUrCrCrUrUrGrUrUrCrAdGdT”: the normalised inhibition (eCFP-eYFP dual reporter) came to 65.9%. In the case of “sense rCrUrGrGrUrCrArUrCrUrGrUrCrCrUrGrArUrGdTdT / antisense rCrArUrCrArGrGrArCrArGrArUrGrArCrCrArGdCdT”, the normalised inhibition (eCFP-eYFP dual reporter) was 76.7%.

With “sense rGrGrArCrCrCrArCrUrGrArArCrArArGrGrArGdTdT / antisense rCrUrCrCrUrUrGrUrUrCrArGrUrGrGrGrUrCrCdTdC”, the normalised inhibition (eCFP-eYFP dual reporter) amounted to 63.1%. On to “sense rCrArCrCrCrCrArArCrArUrUrGrArCrCrUrCrGdTdT / antisense rCrGrArGrGrUrCrArArUrGrUrUrGrGrGrGrUrGdAdT”, for which the normalised inhibition (eCFP-eYFP dual reporter) came out at 62.5%. With “sense rGrGrCrCrGrCrArGrArGrGrUrCrCrUrGrCrArGdTdT / antisense rCrUrGrCrArGrGrArCrCrUrCrUrGrCrGrGrCrCdTdC” the figure was 66.4%; with “sense rGrUrGrArUrArUrCrArGrCrUrUrCrUrCrArGrAdTdT / antisense rUrCrUrGrArGrArArGrCrUrGrArUrArUrCrArCdAdC”, 70.3%.

In turn, “sense rArGrGrGrCrArArCrGrUrCrUrGrCrCrUrCrArAdTdT / antisense rUrUrGrArGrGrCrArGrArCrGrUrUrGrCrCrCrUdCdG” gave a normalised inhibition (eCFP-eYFP dual reporter) of 79.5%. With “sense rCrUrUrCrUrUrGrGrArGrCrCrCrArArCrCrCrCdTdT / antisense rGrGrGrGrUrUrGrGrGrCrUrCrCrArArGrArArGdAdG” the figure was 61.3%; with “sense rUrUrUrGrUrGrUrUrCrArGrUrUrUrUrArArGrGdTdT / antisense rCrCrUrUrArArArArCrUrGrArArCrArCrArArAdCdT”, 51.1%; with “sense rCrGrGrGrGrUrGrGrCrUrArCrArUrCrGrGrCrUdTdT / antisense rArGrCrCrGrArUrGrUrArGrCrCrArCrCrCrCrGdCdA”, 54.3%. The result for “sense rUrCrUrCrUrUrCrUrUrGrGrArGrCrCrCrArArCdTdT / antisense rGrUrUrGrGrGrCrUrCrCrArArGrArArGrArGrAdTdA” reads 69.7%; that for “sense rArGrArArGrArArGrGrArGrGrArGrGrArGrUrCdTdT / antisense rGrArCrUrCrCrUrCrCrUrCrCrUrUrCrUrUrCrUdGdC”, 59.4%; that for “sense rGrUrCrArUrCrUrGrUrCrCrUrGrArUrGrArGrGdTdT / antisense rCrCrUrCrArUrCrArGrGrArCrArGrArUrGrArCdCdA”, 58.9%. Take “sense rGrCrCrArGrUrCrCrUrUrArCrGrArUrArArArCdTdT / antisense rGrUrUrUrArUrCrGrUrArArGrGrArCrUrGrGrCdTdT”: the normalised inhibition (eCFP-eYFP dual reporter) turned out to be 68.5%. With “sense rGrArUrArUrCrArGrCrUrUrCrUrCrArGrArUrCdTdT / antisense rGrArUrCrUrGrArGrArArGrCrUrGrArUrArUrCdAdC” the figure was 60.5%; with “sense rArGrGrArCrUrGrGrArArGrCrCrArGrUrCrCrUdTdT / antisense rArGrGrArCrUrGrGrCrUrUrCrCrArGrUrCrCrUdCdT”, 54.1%.

Take “sense rArUrCrUrCrUrUrCrUrUrGrGrArGrCrCrCrArAdTdT / antisense rUrUrGrGrGrCrUrCrCrArArGrArArGrArGrArUdAdC”: the normalised inhibition (eCFP-eYFP dual reporter) was 77.1%. The result for “sense rGrGrGrCrArGrCrArGrCrArArGrArArGrGrCrGdTdT / antisense rCrGrCrCrUrUrCrUrUrGrCrUrGrCrUrGrCrCrCdTdT” reads 58.9%. “sense rArGrArArCrArArCrCrGrGrCrGrGrCrUrGrUrUdTdT / antisense rArArCrArGrCrCrGrCrCrGrGrUrUrGrUrUrCrUdGdC” registered a normalised inhibition (eCFP-eYFP dual reporter) of 61.2%. With “sense rGrGrCrCrArGrGrGrUrUrArCrCrCrGrCrArUrGdTdT / antisense rCrArUrGrCrGrGrGrUrArArCrCrCrUrGrGrCrCdCdA” the figure was 73.8%.
